Here are results for 3 compounds from ChEMBL document CHEMBL5608176, “Binding sites and design strategies for small molecule GLP-1R agonists” (Eur J Med Chem, 2024).

The term pEC50 denotes the negative decadic logarithm of the EC50, by convention in mol/L.

pEC50: −log10 of the molar value.

For assay [1], the target named is Glucagon-like peptide 1 receptor (Homo sapiens, UniProt P43220). As to the kind of experiment: Agonist activity at human GLP-1 expressed in HEK293 cells assessed as […] in intracellular cAMP accumulation incubated for 60 mins by HTRF assay. Format: functional, cell-based.
Chain of Glucagon-like peptide 1 receptor (P43220 whole entry): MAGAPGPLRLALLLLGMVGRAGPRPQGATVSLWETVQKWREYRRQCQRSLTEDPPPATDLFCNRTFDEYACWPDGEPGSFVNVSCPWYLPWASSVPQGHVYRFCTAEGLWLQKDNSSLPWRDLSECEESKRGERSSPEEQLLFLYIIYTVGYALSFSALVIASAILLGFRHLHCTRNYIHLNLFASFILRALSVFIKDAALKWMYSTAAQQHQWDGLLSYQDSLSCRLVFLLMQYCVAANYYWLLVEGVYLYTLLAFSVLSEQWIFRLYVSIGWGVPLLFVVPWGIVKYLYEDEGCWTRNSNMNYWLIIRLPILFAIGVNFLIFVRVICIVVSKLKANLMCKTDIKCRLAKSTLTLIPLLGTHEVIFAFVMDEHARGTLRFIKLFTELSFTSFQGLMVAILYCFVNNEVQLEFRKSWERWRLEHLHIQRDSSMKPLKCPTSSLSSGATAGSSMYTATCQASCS
The target of assay [2] is Voltage-gated inwardly rectifying potassium channel KCNH2 (Homo sapiens, UniProt Q12809). As to the kind of experiment: Inhibition of hERG potassium channel by patch clamp assay. The assay is classed as toxicity. For orientation: Block of hERG is tested as a sign of cardiac risk.
Chain of Voltage-gated inwardly rectifying potassium channel KCNH2 (Q12809 whole entry): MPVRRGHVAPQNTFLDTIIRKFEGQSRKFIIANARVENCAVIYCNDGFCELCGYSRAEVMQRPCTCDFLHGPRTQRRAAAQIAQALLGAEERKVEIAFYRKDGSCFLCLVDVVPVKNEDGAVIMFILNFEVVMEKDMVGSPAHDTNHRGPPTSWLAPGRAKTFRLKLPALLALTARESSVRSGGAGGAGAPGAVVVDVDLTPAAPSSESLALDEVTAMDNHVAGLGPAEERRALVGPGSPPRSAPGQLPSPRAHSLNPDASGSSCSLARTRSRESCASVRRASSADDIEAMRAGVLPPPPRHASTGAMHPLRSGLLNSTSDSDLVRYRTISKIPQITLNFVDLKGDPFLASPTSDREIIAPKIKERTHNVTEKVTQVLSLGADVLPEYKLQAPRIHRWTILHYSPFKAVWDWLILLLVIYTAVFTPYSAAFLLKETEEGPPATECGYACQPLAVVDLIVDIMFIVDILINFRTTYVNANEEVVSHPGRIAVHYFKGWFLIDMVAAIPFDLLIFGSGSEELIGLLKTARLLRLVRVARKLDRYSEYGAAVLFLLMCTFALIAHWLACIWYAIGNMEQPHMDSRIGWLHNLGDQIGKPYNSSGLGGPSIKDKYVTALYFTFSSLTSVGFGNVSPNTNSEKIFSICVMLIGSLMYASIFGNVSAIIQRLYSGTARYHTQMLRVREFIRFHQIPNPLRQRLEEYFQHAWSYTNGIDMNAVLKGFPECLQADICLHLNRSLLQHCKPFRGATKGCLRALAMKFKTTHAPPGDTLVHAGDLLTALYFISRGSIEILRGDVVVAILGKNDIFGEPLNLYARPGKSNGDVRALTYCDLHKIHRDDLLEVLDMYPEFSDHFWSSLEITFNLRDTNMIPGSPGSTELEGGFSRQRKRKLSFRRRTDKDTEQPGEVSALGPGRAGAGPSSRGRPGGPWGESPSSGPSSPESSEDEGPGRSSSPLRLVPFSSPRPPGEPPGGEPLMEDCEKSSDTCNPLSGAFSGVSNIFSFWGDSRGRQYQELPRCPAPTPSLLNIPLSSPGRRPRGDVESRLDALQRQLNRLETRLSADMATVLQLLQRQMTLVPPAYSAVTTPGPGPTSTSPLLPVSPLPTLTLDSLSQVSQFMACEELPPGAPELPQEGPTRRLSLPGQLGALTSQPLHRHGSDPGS

In the case of `COc1nccc(-c2ccc3c(c2)cc(C(=O)N2CCc4nn(-c5cc(C)c(F)c(C)c5)c(-n5ccn(-c6ccc7c(cnn7C)c6F)c5=O)c4[C@@H]2C)n3[C@@]2(c3noc(=O)[nH]3)C[C@@H]2C)c1C`, the pEC50 in assay [1] is 8.57.
Same read-out and setting: to `COCCn1ncc2c(F)c(-n3ccn(-c4c5c(nn4-c4cc(C)c(F)c(C)c4)CCN(C(=O)c4cc6cc([C@H]7CCOC(C)(C)C7)ccc6n4[C@@]4(c6noc(=O)[nH]6)C[C@@H]4C)[C@H]5C)c3=O)ccc21` belongs 8.68.
`Cn1c(CN2CCC(c3cccc(OCc4ccc(Cl)cc4F)n3)CC2)nc2ccncc21` had a pEC50 in assay [2] of 7.11.
